Assay results: patent publication US6368632B1, “Microencapsulated 3-piperidinyl-substituted 1,2-benzisoxazoles and 1,2-benzisothiazoles” (Janssen Pharmaceutica, priority 1993, dated 2002)

Columns and labels:
[1] = biological target: dopamine-D2 (Homo sapiens, UniProt P14416); details: Janssen et al., J. Pharmacol. Exp. Ther. 244 (2):685-693 (1988); cited from earlier work
[2] = Solubility in the real time in vitro dissolution receiving medium; details: 50 mM tris buffer, 37 °C, pH 7.4, aqueous buffer

dopamine-D2, sequence (P14416 whole entry): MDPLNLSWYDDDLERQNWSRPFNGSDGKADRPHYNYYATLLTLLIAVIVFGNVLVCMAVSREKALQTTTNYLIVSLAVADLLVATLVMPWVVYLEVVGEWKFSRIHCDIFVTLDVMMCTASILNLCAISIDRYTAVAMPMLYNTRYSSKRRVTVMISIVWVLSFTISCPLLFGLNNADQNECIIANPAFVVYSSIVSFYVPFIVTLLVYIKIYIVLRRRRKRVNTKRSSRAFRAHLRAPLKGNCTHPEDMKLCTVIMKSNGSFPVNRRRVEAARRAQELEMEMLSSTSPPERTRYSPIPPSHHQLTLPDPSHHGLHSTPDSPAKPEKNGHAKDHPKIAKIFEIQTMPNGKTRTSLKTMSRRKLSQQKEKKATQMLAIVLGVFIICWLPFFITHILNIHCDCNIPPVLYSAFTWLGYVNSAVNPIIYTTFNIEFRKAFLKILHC

## Cc1nc2n(c(=O)c1CCN1CCC(c3noc4cc(F)ccc34)CC1)CCCC2 [Risperidone, 3-[2-[4-(6-fluoro-1,2-benzisoxazol-3-yl)-1-piperidinyl)ethyl]-6,7,8,9-tetrahydro-2-methyl-4H -pyrido[1,2-a]pyrimidin-4-one]
[1]
  activity in tests related to dopamine-D2 antagonism: showed activity in all tests related to dopamine-D2 antagonism
[2]
  solubility: ≥ 500 µg/mL
